In brackets after ≈: the same amount, converted by molar mass. Activity calls are given as the source filed them. The calls are words filed in the database; no cut-off is given here.
Experiments:
HCT-116 [1] = test: Cytotoxicity against human HCT116 cells assessed as reduction in cell viability after 48 hrs by MTT assay; assay type: functional, cell-based; settings: HCT-116, 48 h
HCT-15 = test: Cytotoxicity against human HCT15 cells assessed as reduction in cell viability after 48 hrs by MTT assay; assay type: functional, cell-based; settings: HCT-15, 48 h
Aurora kinase B = Aurora kinase B (Homo sapiens, UniProt Q96GD4); test: Inhibition of recombinant Aurora B (unknown origin) using TAMRA-PKAtide as substrate after 1 hr by fluorescence polarization assay
HCT-116 [2] = test: Induction of apoptosis in human HCT116 cells at 100 nM after 72 hrs by Annexin V-FITC staining-based flow cytometric analysis; assay type: functional, cell-based
HCT-116 [3] = test: Inhibition of cytokinesis in human HCT116 cells at 100 nM after 24 hrs by propidium iodide/RNase staining-based flow cytometric analysis; assay type: functional, cell-based
HCT-116 [4] = test: Induction of apoptosis in human HCT116 cells at 1 uM after 72 hrs by Annexin V-FITC/propidium iodide staining-based flow cytometric analysis; assay type: functional, cell-based
HCT-116 [5] = test: Inhibition of cytokinesis in human HCT116 cells at 1 uM after 24 hrs by propidium iodide/RNase staining-based flow cytometric analysis; assay type: functional, cell-based
[6] = Solubility of the compound in phosphate buffer of pH 7.4 after 24 hrs by RP-HPLC analysis; assay type: physicochemical; settings: phosphate buffer, pH 7.4
HCT-116 [7] = test: Synergistic cytotoxicity against human HCT116 cells assessed as reduction in cell viability by measuring combination index at 1:1 compound to GSK2126458 ratio after 48 hrs by MTT assay; assay type: functional
HCT-116 [8] = test: Synergistic cytotoxicity against human HCT116 cells assessed as reduction in cell viability by measuring combination index at 1:1 compound to erlotinib ratio after 48 hrs by MTT assay; assay type: functional
HCT-116 [9] = test: Synergistic cytotoxicity against human HCT116 cells assessed as reduction in cell viability by measuring combination index at 1:1 compound to dasatinib ratio after 48 hrs by MTT assay; assay type: functional
HCT-116 [10] = test: Synergistic cytotoxicity against human HCT116 cells assessed as reduction in cell viability by measuring combination index at 1:1 compound to crizotinib ratio after 48 hrs by MTT assay; assay type: functional
HT-29 [11] = test: Synergistic cytotoxicity against human HT-29 cells assessed as reduction in cell viability by measuring combination index at 1:1 compound to trichostatin A ratio after 48 hrs by MTT assay; assay type: functional
HT-29 [12] = test: Synergistic cytotoxicity against human HT-29 cells assessed as reduction in cell viability by measuring combination index at 1:1 compound to crizotinib ratio after 48 hrs by MTT assay; assay type: functional
HT-29 [13] = test: Synergistic cytotoxicity against human HT-29 cells assessed as reduction in cell viability by measuring combination index at 1:1 compound to lonafarnib ratio after 48 hrs by MTT assay; assay type: functional
[14] = biological target: Tyrosine-protein kinase receptor UFO (Homo sapiens) (UniProt P30530); test: Inhibition of AXL (unknown origin) at 10 uM
Sequence of Tyrosine-protein kinase receptor UFO (Homo sapiens) (P30530 whole entry): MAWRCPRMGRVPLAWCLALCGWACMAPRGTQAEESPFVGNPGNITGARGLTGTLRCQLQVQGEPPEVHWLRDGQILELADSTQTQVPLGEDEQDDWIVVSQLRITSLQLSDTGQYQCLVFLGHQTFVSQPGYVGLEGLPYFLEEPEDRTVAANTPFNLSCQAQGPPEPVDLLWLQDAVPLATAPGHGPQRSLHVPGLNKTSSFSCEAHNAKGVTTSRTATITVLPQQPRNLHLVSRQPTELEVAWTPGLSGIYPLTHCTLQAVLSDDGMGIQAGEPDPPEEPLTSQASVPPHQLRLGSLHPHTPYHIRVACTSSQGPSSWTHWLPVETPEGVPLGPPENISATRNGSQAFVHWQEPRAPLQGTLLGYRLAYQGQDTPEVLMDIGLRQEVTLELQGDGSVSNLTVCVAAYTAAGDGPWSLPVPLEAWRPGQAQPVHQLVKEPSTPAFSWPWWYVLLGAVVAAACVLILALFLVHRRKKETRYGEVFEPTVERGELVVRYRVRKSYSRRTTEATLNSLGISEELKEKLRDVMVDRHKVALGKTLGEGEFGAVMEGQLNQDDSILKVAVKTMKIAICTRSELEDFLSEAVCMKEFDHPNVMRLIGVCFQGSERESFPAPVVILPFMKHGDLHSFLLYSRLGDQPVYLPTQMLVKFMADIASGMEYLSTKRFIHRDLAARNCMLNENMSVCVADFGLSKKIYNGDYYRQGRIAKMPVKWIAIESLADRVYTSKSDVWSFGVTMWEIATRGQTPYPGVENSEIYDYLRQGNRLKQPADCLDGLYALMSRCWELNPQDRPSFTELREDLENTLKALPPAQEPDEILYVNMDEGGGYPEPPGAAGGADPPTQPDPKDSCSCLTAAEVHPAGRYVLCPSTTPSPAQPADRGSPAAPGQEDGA

[15] = biological target: Vascular endothelial growth factor receptor 2 (Homo sapiens) (UniProt P35968); test: Inhibition of VEGFR2 (unknown origin) at 10 uM
[16] = biological target: Tyrosine-protein kinase ABL1 (Homo sapiens) (UniProt P00519); test: Inhibition of ABL (unknown origin) at 10 uM
[17] = biological target: Proto-oncogene tyrosine-protein kinase receptor Ret (Homo sapiens) (UniProt P07949); test: Inhibition of RET (unknown origin) at 10 uM
[18] = biological target: Serine/threonine-protein kinase PAK 4 (Homo sapiens) (UniProt O96013); test: Inhibition of PAK4 (unknown origin) at 10 uM
[19] = biological target: High affinity nerve growth factor receptor (Homo sapiens) (UniProt P04629); test: Inhibition of TrkA (unknown origin) at 10 uM
[20] = biological target: Platelet-derived growth factor receptor beta (Homo sapiens) (UniProt P09619); test: Inhibition of PDGFRbeta (unknown origin) at 10 uM
[21] = biological target: Epithelial discoidin domain-containing receptor 1 (Homo sapiens) (UniProt Q08345); test: Inhibition of DDR1 (unknown origin) at 10 uM
Sequence of Epithelial discoidin domain-containing receptor 1 (Homo sapiens) (Q08345 whole entry, the tested form may be a part): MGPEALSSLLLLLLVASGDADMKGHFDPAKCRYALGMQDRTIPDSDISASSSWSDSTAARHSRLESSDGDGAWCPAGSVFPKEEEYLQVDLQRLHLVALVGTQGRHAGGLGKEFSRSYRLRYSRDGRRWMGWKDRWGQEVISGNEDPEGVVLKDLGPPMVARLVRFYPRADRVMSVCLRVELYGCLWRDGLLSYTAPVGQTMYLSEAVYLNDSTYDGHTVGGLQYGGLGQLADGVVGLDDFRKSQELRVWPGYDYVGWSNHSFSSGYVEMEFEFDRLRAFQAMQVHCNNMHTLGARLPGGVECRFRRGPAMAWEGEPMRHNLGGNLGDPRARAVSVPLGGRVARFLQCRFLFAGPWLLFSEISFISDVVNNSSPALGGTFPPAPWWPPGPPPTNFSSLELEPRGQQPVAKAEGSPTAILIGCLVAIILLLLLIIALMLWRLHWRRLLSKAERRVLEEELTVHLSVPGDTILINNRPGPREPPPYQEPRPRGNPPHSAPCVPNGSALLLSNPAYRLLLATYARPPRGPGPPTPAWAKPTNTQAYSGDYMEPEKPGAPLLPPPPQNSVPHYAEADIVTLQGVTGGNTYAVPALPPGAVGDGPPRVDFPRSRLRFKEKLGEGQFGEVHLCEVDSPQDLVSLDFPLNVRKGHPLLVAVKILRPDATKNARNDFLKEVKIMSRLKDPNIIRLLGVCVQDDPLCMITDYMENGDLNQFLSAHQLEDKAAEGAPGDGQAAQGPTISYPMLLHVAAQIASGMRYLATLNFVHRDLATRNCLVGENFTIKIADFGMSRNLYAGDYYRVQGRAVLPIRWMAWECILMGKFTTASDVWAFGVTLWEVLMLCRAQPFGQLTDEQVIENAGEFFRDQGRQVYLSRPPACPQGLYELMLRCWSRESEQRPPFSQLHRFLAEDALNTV

[22] = biological target: Fibroblast growth factor receptor 3 (Homo sapiens) (UniProt P22607); test: Inhibition of FGFR3 (unknown origin) at 10 uM
[23] = biological target: Mast/stem cell growth factor receptor Kit (Homo sapiens) (UniProt P10721); test: Inhibition of c-KIT (unknown origin) at 10 uM
[24] = biological target: Serine/threonine-protein kinase Chk1 (Homo sapiens) (UniProt O14757); test: Inhibition of CHK1 (unknown origin) at 10 uM
[25] = biological target: Receptor-type tyrosine-protein kinase FLT3 (Homo sapiens) (UniProt P36888); test: Inhibition of FLT3 (unknown origin) at 10 uM
[26] = biological target: Serine/threonine-protein kinase B-raf (Homo sapiens) (UniProt P15056); test: Inhibition of BRAF (unknown origin) at 10 uM
[27] = biological target: Hepatocyte growth factor receptor (Homo sapiens) (UniProt P08581); test: Inhibition of c-MET (unknown origin) at 10 uM
[28] = biological target: Angiopoietin-1 receptor (Homo sapiens) (UniProt Q02763); test: Inhibition of TIE2 (unknown origin) at 10 uM
[29] = biological target: Serine/threonine-protein kinase pim-1 (Homo sapiens) (UniProt P11309); test: Inhibition of PIM1 (unknown origin) at 10 uM
[30] = biological target: CDK2/Cyclin A2 (Homo sapiens) (UniProt P24941+P20248); test: Inhibition of CDK2/cyclin A (unknown origin) at 10 uM; assay type: protein-complex assay
[31] = biological target: Insulin receptor (Homo sapiens) (UniProt P06213); test: Inhibition of INSR (unknown origin) at 10 uM
Sequence of Insulin receptor (Homo sapiens) (P06213 28-758 limits assumed): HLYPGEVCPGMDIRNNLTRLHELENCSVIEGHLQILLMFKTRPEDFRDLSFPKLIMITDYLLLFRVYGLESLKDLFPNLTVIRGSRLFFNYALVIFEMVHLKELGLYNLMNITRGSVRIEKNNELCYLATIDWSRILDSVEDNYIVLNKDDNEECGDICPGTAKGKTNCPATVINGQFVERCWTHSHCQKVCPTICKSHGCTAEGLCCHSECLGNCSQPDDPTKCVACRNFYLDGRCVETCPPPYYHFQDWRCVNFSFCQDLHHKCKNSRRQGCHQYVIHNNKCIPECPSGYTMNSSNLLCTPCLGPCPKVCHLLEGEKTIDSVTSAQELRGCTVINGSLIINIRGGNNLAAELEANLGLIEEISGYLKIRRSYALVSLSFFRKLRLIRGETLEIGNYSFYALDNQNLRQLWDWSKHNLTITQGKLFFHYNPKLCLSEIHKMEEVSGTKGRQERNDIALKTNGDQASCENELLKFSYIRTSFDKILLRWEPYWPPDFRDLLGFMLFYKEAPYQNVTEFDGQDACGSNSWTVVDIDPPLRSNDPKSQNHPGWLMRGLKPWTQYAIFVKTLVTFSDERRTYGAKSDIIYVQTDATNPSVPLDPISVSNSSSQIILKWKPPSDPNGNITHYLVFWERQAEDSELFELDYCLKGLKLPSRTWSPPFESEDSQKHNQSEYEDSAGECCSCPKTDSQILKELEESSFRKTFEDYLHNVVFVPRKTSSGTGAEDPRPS
Sequence of Insulin receptor (Homo sapiens) (P06213 763-1382 limits assumed): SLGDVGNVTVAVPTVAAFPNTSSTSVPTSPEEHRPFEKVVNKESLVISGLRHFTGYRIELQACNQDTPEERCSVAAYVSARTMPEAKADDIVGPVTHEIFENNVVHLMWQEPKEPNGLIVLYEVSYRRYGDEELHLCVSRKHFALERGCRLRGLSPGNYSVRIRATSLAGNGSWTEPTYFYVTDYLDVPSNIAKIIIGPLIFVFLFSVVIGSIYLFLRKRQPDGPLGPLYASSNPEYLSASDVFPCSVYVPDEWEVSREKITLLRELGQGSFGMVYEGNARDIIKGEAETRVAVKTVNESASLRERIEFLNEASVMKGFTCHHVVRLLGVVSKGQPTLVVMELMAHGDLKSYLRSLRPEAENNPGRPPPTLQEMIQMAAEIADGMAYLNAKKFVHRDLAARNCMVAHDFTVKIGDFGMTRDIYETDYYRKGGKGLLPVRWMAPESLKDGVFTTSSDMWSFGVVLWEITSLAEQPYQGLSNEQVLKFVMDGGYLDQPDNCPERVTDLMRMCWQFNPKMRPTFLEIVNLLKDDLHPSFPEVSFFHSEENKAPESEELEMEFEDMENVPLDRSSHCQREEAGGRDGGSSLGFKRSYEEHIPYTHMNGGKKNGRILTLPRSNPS

[32] = biological target: Serine/threonine-protein kinase PAK 1 (Homo sapiens) (UniProt Q13153); test: Inhibition of PAK1 (unknown origin) at 10 uM
Sequence of Serine/threonine-protein kinase PAK 1 (Homo sapiens) (Q13153 whole entry): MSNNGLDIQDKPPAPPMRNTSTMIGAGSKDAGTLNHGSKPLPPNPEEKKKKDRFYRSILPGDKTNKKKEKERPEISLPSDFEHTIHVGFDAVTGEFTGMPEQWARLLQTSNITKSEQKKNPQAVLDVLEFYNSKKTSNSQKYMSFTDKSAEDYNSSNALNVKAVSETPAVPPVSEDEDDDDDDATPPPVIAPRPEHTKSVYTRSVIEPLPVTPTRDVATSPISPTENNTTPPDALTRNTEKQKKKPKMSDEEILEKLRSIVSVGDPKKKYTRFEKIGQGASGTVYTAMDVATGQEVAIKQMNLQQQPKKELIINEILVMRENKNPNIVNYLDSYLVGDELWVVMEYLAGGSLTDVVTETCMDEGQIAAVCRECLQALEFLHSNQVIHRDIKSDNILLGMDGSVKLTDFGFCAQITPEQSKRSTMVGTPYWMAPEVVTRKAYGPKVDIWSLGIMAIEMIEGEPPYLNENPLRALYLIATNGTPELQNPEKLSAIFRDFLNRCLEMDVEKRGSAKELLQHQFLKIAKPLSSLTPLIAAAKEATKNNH

[33] = biological target: Protein kinase C alpha type (Homo sapiens) (UniProt P17252); test: Inhibition of PKCalpha (unknown origin) at 10 uM
[34] = biological target: Tyrosine-protein kinase SYK (Homo sapiens) (UniProt P43405); test: Inhibition of SYK (unknown origin) at 10 uM
[35] = biological target: Inhibitor of nuclear factor kappa-B kinase subunit beta (Homo sapiens) (UniProt O14920); test: Inhibition of IKKbeta (unknown origin) at 10 uM
[36] = biological target: Interleukin-1 receptor-associated kinase 4 (Homo sapiens) (UniProt Q9NWZ3); test: Inhibition of IRAK4 (unknown origin) at 10 uM
[37] = biological target: Mitogen-activated protein kinase 3 (Homo sapiens) (UniProt P27361); test: Inhibition of ERK1 (unknown origin) at 10 uM
Sequence of Mitogen-activated protein kinase 3 (Homo sapiens) (P27361 whole entry): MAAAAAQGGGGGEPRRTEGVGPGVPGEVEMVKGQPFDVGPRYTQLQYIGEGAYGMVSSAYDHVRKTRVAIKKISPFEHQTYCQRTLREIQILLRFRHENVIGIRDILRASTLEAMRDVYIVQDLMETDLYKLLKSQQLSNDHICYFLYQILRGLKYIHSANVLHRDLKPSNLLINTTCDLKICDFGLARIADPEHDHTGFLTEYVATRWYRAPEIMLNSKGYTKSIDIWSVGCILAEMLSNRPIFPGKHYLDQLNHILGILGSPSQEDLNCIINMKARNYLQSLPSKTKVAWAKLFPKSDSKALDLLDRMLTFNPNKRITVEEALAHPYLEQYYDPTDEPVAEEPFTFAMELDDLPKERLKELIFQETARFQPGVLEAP

[38] = biological target: Mitogen-activated protein kinase 8 (Homo sapiens) (UniProt P45983); test: Inhibition of JNK1 (unknown origin) at 10 uM
[39] = biological target: Rho-associated protein kinase 2 (Homo sapiens) (UniProt O75116); test: Inhibition of ROCK2 (unknown origin) at 10 uM
[40] = biological target: Serine/threonine-protein kinase mTOR (Homo sapiens) (UniProt P42345); test: Inhibition of mTOR (unknown origin) at 10 uM

IC50 (Aurora kinase B): 29 nM | solubility at 24 h [6]: 1.9 µM (≈ 0.86 µg/mL) | inhibition [14]: 112% | inhibition [15]: 109% | inhibition [16]: 100% | inhibition [17]: 98.4% | inhibition [18]: 95.7% | inhibition [19]: 95.3% | inhibition [20]: 88% | inhibition [21]: 84.4% | inhibition [22]: 81.6% | inhibition [23]: 71.6% | inhibition [24]: 62.8% | inhibition [25]: 56.8% | inhibition [26]: 53.5% | inhibition [27]: 47.4% | inhibition [28]: 35.7% | inhibition [29]: 35.7% | inhibition [30]: 33.9% | inhibition [31]: 28.5% | inhibition [32]: 26.7% | inhibition [33]: 21.4% | inhibition [34]: 16.6% | inhibition [35]: 16.2% | inhibition [36]: 16% | inhibition [37]: 12.4% | inhibition [38]: 12.2% | inhibition [39]: 11.8% | inhibition [40]: 8.62%
Structure (SMILES): CNC(=O)Nc1sc2c(C(C)C)cc(NS(=O)(=O)c3cccs3)cc2c1C(N)=O
IC50 (HCT-116 [1]): 290 nM | IC50 (HCT-15): 620 nM | Activity (HCT-116 [2]): Active | Cytokinesis inhibition (active/inactive call) (HCT-116 [3]): Active | Activity (HCT-116 [4]): Active | Cytokinesis inhibition (active/inactive call) (HCT-116 [5]): Active | CI (HCT-116 [7]): 1.042 | CI (HCT-116 [8]): 0.25 | CI (HCT-116 [9]): 1 | CI (HCT-116 [10]): 0.136 | CI (HT-29 [11]): 0.185 | CI (HT-29 [12]): 0.102 | CI (HT-29 [13]): 0.198
